In assay [1] the target is T1, FSH receptor (Homo sapiens, UniProt P23945).
T1 sequence (P23945 18-695): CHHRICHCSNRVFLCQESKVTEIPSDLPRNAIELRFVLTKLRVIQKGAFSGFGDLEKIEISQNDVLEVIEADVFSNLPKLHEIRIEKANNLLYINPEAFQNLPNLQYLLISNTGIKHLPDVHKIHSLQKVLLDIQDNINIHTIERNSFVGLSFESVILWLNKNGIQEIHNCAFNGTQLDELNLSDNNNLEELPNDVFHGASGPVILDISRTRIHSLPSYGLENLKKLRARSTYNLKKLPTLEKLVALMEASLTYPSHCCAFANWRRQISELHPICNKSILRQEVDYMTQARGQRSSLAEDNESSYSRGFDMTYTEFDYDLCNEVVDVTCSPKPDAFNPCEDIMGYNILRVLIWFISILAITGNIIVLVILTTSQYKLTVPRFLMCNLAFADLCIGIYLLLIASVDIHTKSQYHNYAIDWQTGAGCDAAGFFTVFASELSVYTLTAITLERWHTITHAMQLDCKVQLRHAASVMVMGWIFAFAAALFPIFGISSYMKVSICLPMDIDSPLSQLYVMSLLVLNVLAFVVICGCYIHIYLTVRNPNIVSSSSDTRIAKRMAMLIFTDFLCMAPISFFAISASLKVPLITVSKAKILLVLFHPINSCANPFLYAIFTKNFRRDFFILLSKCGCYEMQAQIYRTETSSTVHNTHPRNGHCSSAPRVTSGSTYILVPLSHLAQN
Description: FSH Receptor Radioligand Membrane Binding Standard Pharmacological Test Procedure. Also on record: expressed in transfected cells. Particulars: [125I]FSH binding to membranes of CHO cells stably transfected with the human FSH receptor. The procedure: FSH Receptor Radioligand Membrane Binding Standard Pharmacological Test Procedure
Membrane Source: Chinese hamster ovarian cells stably transfected with the human FSH receptor were cultured (Ultra CHO medium containing 1% fetal bovine serum and 200 μg/mL G418) in and harvested. Cells were collected by centrifugation and resulting cell pellets were frozen and stored at −70° C.
Membrane Receptor Preparation: Frozen cell pellets were weighed and resuspended in binding buffer to a final concentration of 30 mg wet weight/mL. Cell suspension for each pellet was homogenized using a Tempest homogenizer (setting=1; 5 strokes; VirTis, Gardiner, N.Y.). Cell homogenates were pooled and 35 mL aliquots were transferred to 50-mL polypropylene copolymer centrifuge tubes (Nalgene cat. #3110-0500). Tubes were spun at 12,000 rpm (SS34 rotor) for 12 min at 4° C. Resulting supernatant fractions were discarded and pellets were stored at −70° C. until use. On the day of the procedure, 35 mL binding buffer was added to each tube (35 mL membrane suspension was sufficient for three 96-well plates). The membrane pellet was dispersed by trituration using a pipet. The resulting suspension wass homogenized using a Tempest homogenizer (3 strokes at setting=1).
Receptor Binding Test procedure: Membrane homogenate (100 μl) was added to each well of a 96-well microtiter plate (Falcon # 3077). All reactions were tested in triplicate. Test compound solutions (50 μl) were added to the designated wells. Total bound counts were determined by adding 50 μl binding buffer containing 4% DMSO to the designated wells. […] Plates were pre-incubated for 15 min at room temperature on shaking platform (setting=3). After preincubation [^125I]FSH (50 μl) was added to each well and plates were incubated for 2 h at room temperature on shaking platform (setting=3). The reaction was terminated by transfer of the membrane preparation to glass fiber filters (Blue Mat #11740; 102×256 mm; Skatron Instruments, Sterling, Va.) that had been pretreated with 1% BSA in wash buffer for at least 30 min, but not longer than 1 h using a 96-well microtiter vacuum harvester (Skatron Instruments). The membrane preparation was washed with 5 cycles of ice-cold wash buffer (200 μl/well/cycle) followed by a pulse wash of 3 cycles (100 μl/well/cycle). The total wash volume per well was 1.3 mL. The filters were dried by a 10 sec aspiration. Disks corresponding to each well of the microtiter plate were punched out of the filter mat into 12×75 mm polypropylene tubes. The radioactivity present on each of the disks was measured using a gamma counter.
An FSH dose response curve (0.001, 0.01, 0.1, 1, 10, and 100 nM) was generated for each binding procedure to monitor procedure to procedrue variability.
FSH Receptor Radioligand Membrane Binding Procedure Buffers and Reagents
Binding buffer is prepared in 11 volumes containing Trizma-HCl, MgCl2, CaCl2 and sodium azide, the pH was adjusted to 7.2 with NaOH, and stored at 4° C. until use. BSA was weighed out on the day of the procedure and added to the amount of buffer required for the procedure (usually 150 mL). The protease inhibitors were prepared as 1 mg/mL stocks (aprotinin, leupeptin, and phosphoramidon were prepared in binding buffer without BSA and protease inhibitors; pepstatin and PMSF were prepared in methanol), stored in 1 mL aliquots at −70° C., and added to the binding buffer on the day of the procedure.
Wash buffer was prepared containing Trizma-HCl, MgCl2 and EDTA, the pH was adjusted to 7.2 with NaOH, and stored at 4° C.
Filter Soak Buffer (pH 7.2)
BSA was weighed out on the day of the procedure and added to 300 mL of wash buffer. The filter soak buffer was used for two procedures before being discarded.
A portion of the stock solution was diluted in binding buffer to a concentration of 200 pM.
FSH Solution for Determining Non-specific Binding: Purified human FSH was prepared as a 100 μM solution in binding buffer without protease inhibitors. […]

In assay [2] the target is T1, FSH receptor. Description: In Vitro Bio-test Procedure of Agonists and Antagonists to the FSH Receptor (cAMP accumulation in CHO-3D2 cells). The arrangement: expressed in transfected cells; host or cells: CHO-3D2 cells. The class given is cell-based. The procedure:
In Vitro Bio-test Procedure of Agonists and Antagonists to the FSH Receptor
The compounds were subsequently diluted in sterile procedure medium (Optimem (Gibco/BRL, Grand Island, N.Y.)/0.1% BSA) prior to use in the bio-procedure.
Preparation of CHO-3D2 Cells; CHO-3D2 cells were plated into 96-well Nunc tissue culture plates at a density of 30,000 cells/well in DMEM/F12 medium (Gibco/BRL, Grand Island, N.Y.) supplemented with 5% Fetal Bovine Serum (Hyclone, Fetal Clone II), 2 mM L-glutamine and penicillin/streptomycin (100 U/mL). Cells were plated one day prior to performing the bio-procedure.
Procedure: On the day of procedure, the wells were washed two times with 100 ul/well of pre-warmed (37 deg C.) procedure medium. After aspirating the second wash, an additional 100 ul of procedure medium was added to each well and the cells pre-incubated for 30-45 minutes at 37 deg C. In a humidified incubator with 5%CO2/95% air. The cells were then challenged with varying dilutions of the test substance(s) in a 50 ul total incubation volume in procedure medium for 30 minutes at 37 deg C. in the humidified incubator. The challenge was terminated by the addition of 50 ul of 0.2 N HCl to each well. CAMP accumulation in the medium was measured by radioimmunoassay.
Test Groups: In the 96-well format, the plate is organized into 12 columns each containing 8 rows of wells. The plate was split in half to test a single compound in both agonist and antagonist mode on the same plate.
For agonist mode, compounds were tested using 5 different concentrations in a dose-response paradigm using one column as a control (challenge medium alone) in agonist mode.
The 96-well format allowed for the capability to test 4 columns of compound, using one of the remaining columns for negative control (challenge medium alone) and the other remaining column for ampositive control (ED20 of FSH alone).
The doses chosen to test each compound were extrapolated from the initial screening process (receptor binding data). Along with the test compounds, FSH was run in agonist mode using doses ranging from 0.1 ng/mL-1000 ng/mL as a postive control. Cytotoxicity of the compounds were screened by treating cells with the highest concentration of each compound used in the cAMP procedure for 30 minutes followed by washing of the cells 2 times with 100 ul PBS. The cells were then incubated for 5 min at 37 deg C. in the presence of 50 ug/mL Fluorescein diacetate and 20 ug/mL Propidium iodide in 100 ul PBS. The cells were washed two times with 100 ul PBS followed by examination of the cells under a fluorescence microscope using a 490 nm filter. Viable cells stained green throughout, while dead cells had red fluorescent nuclei.
Analysis of Results: cAMP accumulation was expressed as fmol/mL. […] Data were analyzed statistically by analysis of variance and significant differences between treatments and control determined by Dunnett's test. In antagonist mode, a Duncan's test was used.
Reference Compounds: Test compounds were compared to the effect of purified or recombinant human FSH.
A general note: cAMP levels reflect the balance of adenylyl cyclase and phosphodiesterase activity.

For `COc1ccc(C(=O)Nc2ccc(/C=C/c3ccc(NC(=O)c4ccc(OC)c(S(=O)(=O)N5CCCCC5)c4)cc3S(=O)(=O)O)c(S(=O)(=O)O)c2)cc1S(=O)(=O)N1CCCCC1` [Example 30h, 2,2′-[(E)-1,2-Ethenediyl]bis[5-[[4-methoxy-3-(1-piperidinylsulfonyl)benzoyl]amino]benzenesulfonic Acid]], the IC50 – broadly, the concentration at which inhibition is half-maximal – in assay [1] came out at 7.3 µM; in assay [2] it was 8.1 µM. With `O=C(O)CS(=O)(=O)c1cccc(C(=O)Nc2ccc(C=Cc3ccc(NC(=O)c4cccc(S(=O)(=O)CC(=O)O)c4)cc3S(=O)(=O)O)c(S(=O)(=O)O)c2)c1` [Example 36b, [3-(4-{2-[4-(3-Carboxymethanesulfonyl-benzoylamino)-2-sulfo-phenyl]-vinyl}-3-sulfo-phenylcarbamoyl)-benzenesulfonyl]-acetic Acid], in assay [1], the IC50 came to 21 µM. In other words, the double-digit micromolar range. Same read-out and setting: to `O=C(CS(=O)(=O)c1cccc(C(=O)Nc2ccc(/C=C/c3ccc(NC(=O)c4cccc(S(=O)(=O)CC(=O)NCCO)c4)cc3S(=O)(=O)O)c(S(=O)(=O)O)c2)c1)NCCO` [Example 37c, 5-[[3-[[2-[(2-Hydroxyethyl)amino]-2-oxoethyl]sulfonyl]benzoyl]amino]-2-[(E)-2-[4-[[3-[[2-[(2-hydroxyethyl)amino]-2-oxoethyl]sulfonyl]benzoyl]amino]-2-sulfo-phenyl]ethenyl]benzenesulfonic Acid] belongs 6.7 µM; to `NC(=O)CS(=O)(=O)c1cccc(C(=O)Nc2ccc(/C=C/c3ccc(NC(=O)c4cccc(S(=O)(=O)CC(N)=O)c4)cc3S(=O)(=O)O)c(S(=O)(=O)O)c2)c1` [Example 37d, 5-[[3-[(2-Amino-2-oxoethyl)sulfonyl]benzoyl]amino]-2-[(E)-2-[4-[[3-[(2-amino-2-oxoethyl)sulfonyl]benzoyl]amino]-2-sulfophenyl]ethenyl]-benzenesulfonic Acid], 4.3 µM.

Regarding `COCCOc1ccc(C(=O)Nc2ccc(/C=C/c3ccc(NC(=O)c4ccc(S(C)(=O)=O)cc4)cc3S(=O)(=O)O)c(S(=O)(=O)O)c2)cc1` [Example 40a, 5-[[4-(2-Methoxyethoxy)benzoyl]amino]-2-[(E)-2-[4-[[4-(methanesulfonyl)benzoyl]amino]-2-sulfophenyl]ethenyl]benzenesulfonic Acid], the IC50 in assay [1] was determined as 6.2 µM. The IC50 values of the last two compounds are within 1.5-fold of each other. On the same count and under the same terms, to `CS(=O)(=O)Cc1ccc(C(=O)Nc2ccc(/C=C/c3ccc(NC(=O)c4ccc(S(C)(=O)=O)cc4)cc3S(=O)(=O)O)c(S(=O)(=O)O)c2)cc1` [Example 40b, 5-[[4-(Methylsulfonyl)benzoyl]amino]-2-[(E)-2-[4-[[4-[(methylsulfonyl)methyl]benzoyl]amino]-2-sulfophenyl]ethenyl]benzenesulfonic Acid] belongs 5.2 µM. In turn, `COc1ccc(C(=O)Nc2ccc(CCc3ccc(NC(=O)c4ccc(OC)c(S(=O)(=O)N5CCS(=O)(=O)CC5)c4)cc3S(=O)(=O)O)c(S(=O)(=O)O)c2)cc1S(=O)(=O)N1CCS(=O)(=O)CC1` [Example 43c, 2,2′-(1,2-Ethanediyl)bis[5-[[3-[(1,1-dioxido-4-thiomorpholinyl)sulfonyl]-4-methoxybenzoyl]amino]benzenesulfonic Acid]] returned an IC50 in assay [1] of 4.5 µM.

In assay [1], `CS(=O)(=O)c1ccc(C(=O)Nc2ccc(CCc3ccc(NC(=O)c4ccc(S(C)(=O)=O)cc4)cc3S(=O)(=O)O)c(S(=O)(=O)O)c2)cc1` [Example 43e] yielded an IC50 of 4.3 µM. On the same count and under the same terms, to `COc1ccc(C(=O)Nc2ccc(CSCc3ccc(NC(=O)c4ccc(OC)c(S(=O)(=O)N5CCOCC5)c4)cc3S(=O)(=O)O)c(S(=O)(=O)O)c2)cc1S(=O)(=O)N1CCOCC1` [Example 50a, 2,2′-[Thiobis(methylene)]bis[5-[[4-methoxy-3-(4-morpholinylsulfonyl)benzoyl]amino]benzenesulfonic Acid]] belongs 34 µM. Same read-out and setting: to `COc1ccc(C(=O)Nc2ccc(CS(=O)(=O)Cc3ccc(NC(=O)c4ccc(OC)c(S(=O)(=O)N5CCOCC5)c4)cc3S(=O)(=O)O)c(S(=O)(=O)O)c2)cc1S(=O)(=O)N1CCOCC1` [Example 50b, 2,2′-[Sulfonylbis(methylene)]bis[5-[[4-methoxy-3-(4-morpholinylsulfonyl)benzoyl]amino]benzenesulfonic acid]] belongs 41 µM; to `CSc1ccc(C(=O)Nc2ccc(C=Cc3ccc(NC(=O)c4ccc(SC)c(S(=O)(=O)N5CCOCC5)c4)cc3S(=O)(=O)O)cc2)cc1S(=O)(=O)N1CCOCC1` [Example 59, 5-[4-Methylsulfanyl-3-(morpholine-4-sulfonyl)-benzoylamino]-2-(2-{[4-methylsulfanyl-3-(morpholine-4-sulfonyl)-benzoylamino]-phenyl}-vinyl)-benzenesulfonic Acid], 16 µM.

For the origin of these results see patent publication US6355633B1, “Aryl sulfonic acids and derivatives as FSH antagonists” (American Home Products Corporation, priority 1999, dated 2002).
